Results taken from patent US20230049350A1, “COMPOUNDS FOR TREATING BRAIN CANCER” (Purdue Pharmaceutical Products L.P., priority 2014, published 2023).
Read-outs that look alike come from different tables or passages of the source.

Key:
Mz-54 = assay: GBM cell line viability IC50, Mz54; type: cell-based
Protocol: (§1) In vitro experiments were devised in which a series of GBM cell lines representative for MGMT negative and MGMT positive tumour cells were used.
(§2) Compounds: 1-100 µM EDO-S101, 1-50 µM temozolomide (TMZ), 1-50 µM temozolomide + 500 nM vorinostat, 1-40 µM bendamustine, 1-40 µM bendamustine and 500 nM vorinostat.
(§3) Twelve glioblastoma cell lines representing grade III and IV gliomas and with different expression of MGMT, drug and radiotherapy sensitivity and five patient derived glioblastoma stem, cells were used (see above). Four patient-derived glioblastoma stem cells, kindly provided from J. Gregory Cairncross, and Samuel Weiss at the Hotchkiss Brain Institute, Faculty of Medicine, University of Calgary, Calgary, Alberta, Canada and one luciferase transfected, PTC#8, from Prof Angelo Vescovi, University la Bicocca, Milan were cultured in defined culture serum free medium (SFM) and in non-adherent spheres culture. Cells were resuspended in DMEM/F12 media without serum supplemented with 20 ng/ml epidermal growth factor (Sigma-Aldrich), 20 ng/ml basic fibroblast growth factor (Sigma-Aldrich), B-27 supplement 1X (Gibco, Life Technologies), and antibiotics. Treatment with EDO-S101 was added straight after plating 3×10^3 cells in 96-well plates with the stem cells media. Spheres were counted 5 days after treatment under an inverted microscope at ×4 magnification. A sphere was counted if it had at least 15 cells.
(§4) Cells were seeded at a density of 2 × 10^4 cells/ml in 24 well plates. Cells were left to attach and grow in 5% FCS DMEM for 24 h. […] Cells trypsinized and resuspended in 1.0 ml of saline were counted using the NucleoCounterTM NC-100 (automated cell counter systems, Chemotec, Cydevang, DK) in order to evaluate cell viability. […] IC50 values were calculated by the GraFit method (Erithacus Software Limited, Staines, UK). Cell viability was measured with the 3-(4,5 dimethylthiazol-2-yl)-2,5-diphenyl tetrazolium bromide (MTT; Sigma-Aldrich) assay.
(§5) IC50 and IC20 values for all twelve cell lines against bendamustine and vorinostat were also determined as described above. […]

NCI-60 cell lines = settings: read-out: median IC50 value; cited from earlier work
U87MG = assay: GBM cell line viability IC50, U87; type: cell-based; settings: Homo sapiens, U-87 MG
Protocol: as §1, §2, §3, §4, §5

LN228 = assay: GBM cell line viability IC50, LN228/LN229; type: cell-based; settings: Homo sapiens, LN-229
Protocol: as §1, §2, §3, §4, §5

SNB19 = assay: GBM cell line viability IC50, SNB19; type: cell-based; settings: Homo sapiens, SNB-19
Protocol: as §1, §2, §3, §4, §5

A172 = assay: GBM cell line viability IC50, A172; type: cell-based; settings: Homo sapiens, A 172
Protocol: as §1, §2, §3, §4, §5

U118MG = assay: GBM cell line viability IC50, U118; type: cell-based; settings: Homo sapiens, U-118-MG
Protocol: as §1, §2, §3, §4, §5

U251-luciferase = assay: Orthotopic model of U251-luciferase transfected cells; type: in vivo, mice; settings: for mice with tumours of some grade (percent): control 72.7%
Protocol: Mice isotopically transfected with U251-luciferase in accordance with the procedure of Example 3 were treated with radiotherapy (2 Gy for 5 consecutive days), temozolomide (16 mg/kg for 5 consecutive days, po), radiotherapy and temozolomide (2 Gy for 5 consecutive days and 16 mg/kg for 5 consecutive days, po), EDO-S101 (60 mg/kg, intravenously at days 1, 8 and 15 of the treatment cycle) or control vehicle.
Intracranial tumour growth was monitored with the […] imaging system (Caliper Life Sciences, Hopkinton, MA, USA). Mice were anesthetized with 2% to 4% isofluorane (Baxter, Deerfield, IL, USA) followed by intraperitoneal injections of 150 mg/kg d-luciferin (In Vivo Imaging Solutions). Five animals were measured at the same time and the luminescent camera was set to 1 minute exposure, medium binning, 1 f/stop, blocked excitation filter, and open emission filter. The photographic camera was set to 2 s exposure, medium binning, and 8 f/stop. The field of view was set to 22 cm to capture five mice at once. Serial images were taken on a weekly basis using identical settings. Bioluminescence intensity was quantified using the Living Image software (Caliper Life Sciences).
Before any irradiation mice were anesthetized with a mixture of ketamine (25 mg/ml)/xylazine (5 mg/ml). Anesthetized tumour-bearing mice received a focal irradiation at the dose of 2 Gy for 5 consecutive days. Irradiation was delivered using an X-ray linear accelerator at a dose rate of 200 cGy/min at room temperature. All mice were shielded with a specially designed lead apparatus to allow irradiation to the […]. Mice were kept under these conditions until all irradiation finished.
All images were obtained in the transverse plane using the following sequences: transverse T2-weighted turbo spin-echo (TSE) sequence (repetition time [TR] msec/echo time [TE] msec) 6766/120, number of signal acquired 4, matrix of 192 × 192) applied with a section thickness of […], an intersection gap of 0.0 mm, and a flip angle of 160 °. The field of view was 36 × 60 mm^2, which included the tumour in its entirety with a resultant voxel size of 0.3 × 0.3 × 1.0 mm^3.
Continuous variables were summarized as mean and standard deviation (SD) or as median and 95% Cl for the median. For continuous variables not normally distributed, statistical comparisons between control and treated groups were established by carrying out the Kruskal-Wallis Tests. For continuous variables normally distributed, statistical comparisons between control and treated groups were established by carrying out the ANOVA test or by Student t test for unpaired data (for two comparisons).

LN18 = assay: GBM cell line viability IC50, LN18; type: cell-based; settings: Homo sapiens, LN-18
Protocol: as §1, §2, §3, §4, §5

U373MG (Uppsala) = assay: GBM cell line viability IC50, U373; type: cell-based; settings: Homo sapiens, U373 MG
Protocol: as §1, §2, §3, §4, §5

U138MG = assay: GBM cell line viability IC50, U138; type: cell-based; settings: Homo sapiens, U138-MG
Protocol: as §1, §2, §3, §4, §5

SW1783 = assay: GBM cell line viability IC50, SW1783; type: cell-based; settings: Homo sapiens
Protocol: as §1, §2, §3, §4, §5

T98G = assay: GBM cell line viability IC50, T98G; type: cell-based
Protocol: as §1, §2, §3, §4, §5

[1] = drug alone, 50 days after beginning of treatment

SMILES	IC50 (Mz-54) [µM]	IC50 (NCI-60 cell lines) [µM]	IC50 (U87MG) [µM]	IC50 (LN228) [µM]	IC50 (SNB19) [µM]	IC50 (A172) [µM]	IC50 (U118MG) [µM]	mice with tumours of some grade (percent) (U251-luciferase; [1]) [%]	IC50 (LN18) [µM]	IC50 (U373MG (Uppsala)) [µM]	IC50 (U138MG) [µM]	IC50 (SW1783; SW1783) [µM]	other results
Cn1c(CCCCCCC(=O)NO)nc2cc(N(CCCl)CCCl)ccc21 [EDO-S101]	12.7	2.2	1.36	1.55	2.17	6.45	6.61	38.5	1.87	2.26	4.27	8.24	survival probability versus radiotherapy or temozolomide (U251-luciferase; drug alone, 60 mg/kg iv days 1, 8, 15, FIG. 17): significantly greater; mice displaying a large lesion (number) (U251-luciferase; [1]): 1 of the 13; mice with tumours of some grade (number) (U251-luciferase; drug alone, 50 days after beginning of treatment, control 8 out of 11): 5 out of 13
Cn1nnc2c(C(N)=O)ncn2c1=O [temozolomide]	–	–	–	–	–	–	–	38.5	–	–	–	–	IC50 (Mz-54; Mz-54, MGMT pos., no unit in Table 2, read-out: IC50): > 100 µM; IC50 (U87MG; MGMT negative U87G glioblastoma cell line, read-out: IC50): 20 µM; IC50 (LN228; LN228, MGMT neg., no unit in Table 2, read-out: IC50): > 100 µM; IC50 (T98G; Homo sapiens, MGMT positive T98G glioblastoma cell line, read-out: IC50): > 100 µM; IC50 (T98G; T98G, MGMT pos., no unit in Table 2 (µM), read-out: IC50): > 100 µM; IC50 (SNB19; SNB19, MGMT neg., no unit in Table 2, read-out: IC50): > 100 µM; IC50 (A172; A172, MGMT neg., no unit in Table 2, read-out: IC50): ~100 µM; IC50 (U118MG; U118MG, MGMT pos., no unit in Table 2, read-out: IC50): > 100 µM; mice displaying lesions at the end of the study (percent) (U251-luciferase; with radiotherapy 2 Gy x 5 days, temozolomide 16 mg/kg po x 5 days): 18.2%; IC50 (LN18; LN18, MGMT pos., no unit in Table 2, read-out: IC50): > 100 µM; IC50 (U373MG (Uppsala); U373MG (Uppsala), MGMT neg., no unit in Table 2, read-out: IC50): 80 µM; IC50 (U138MG; U138MG, MGMT pos., no unit in Table 2, read-out: IC50): > 100 µM; IC50 (SW1783; SW1783, MGMT neg., no unit in Table 2, read-out: IC50): 80 µM
Cn1c(CCCC(=O)O)nc2cc(N(CCCl)CCCl)ccc21 [bendamustine]	60	72	50	35	32	55	35	–	25	35	30	38	IC50 (T98G; Homo sapiens, T98G): 52 µM
